Measured values published in ChEMBL document CHEMBL1151492, “elastase inhibitors containing conformationally restricted lactams as P3-P2 dipeptide replacements” (Bioorg Med Chem Lett, 1993).
“And” between values parts separate entries of the source, which are not always exact repeats. Equal entries are not always repeated.

Legend:
Neutrophil elastase = target: T1, Neutrophil elastase (Homo sapiens, UniProt P08246); test: In vitro inhibitory activity against human leukocyte elastase
T1 sequence (P08246 whole entry): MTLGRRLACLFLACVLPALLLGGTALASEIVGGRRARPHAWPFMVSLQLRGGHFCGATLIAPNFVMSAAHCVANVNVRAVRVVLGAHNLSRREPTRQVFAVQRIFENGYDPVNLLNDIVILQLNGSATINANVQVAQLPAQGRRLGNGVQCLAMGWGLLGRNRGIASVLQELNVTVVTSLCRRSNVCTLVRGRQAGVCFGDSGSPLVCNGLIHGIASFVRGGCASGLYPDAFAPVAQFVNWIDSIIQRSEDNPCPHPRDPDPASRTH

Cricetinae gen. sp. = test: Effective dose required to inhibit elastase induced pulmonary hemorrhage (EPH) lung model in hamsters; assay type: functional, Cricetulus griseus

Structure (SMILES)	IC50 (Neutrophil elastase)	ED50 (Cricetinae gen. sp.) [µM]
CC(C)C(NC(=O)CN1CCCC[C@H](NC(=O)c2ccc(C(=O)NS(=O)(=O)c3ccc(Cl)cc3)cc2)C1=O)C(=O)C(F)(F)F (stereo not given in full)	> 5 µM	–
CC(C)C(NC(=O)CN1CCC[C@H](NC(=O)c2ccc(C(=O)NS(=O)(=O)c3ccc(Cl)cc3)cc2)C1=O)C(=O)C(F)(F)F (stereo not given in full)	> 5 µM	–
CC(C)C(NC(=O)CN(C(=O)[C@@H](NC(=O)c1ccc(C(=O)NS(=O)(=O)c2ccc(Cl)cc2)cc1)C(C)C)C1Cc2ccccc2C1)C(=O)C(F)(F)F (stereo not given in full)	–	4.8
CC(C)C(NC(=O)CN1C(=O)[C@@H](NC(=O)c2ccc(C(=O)NS(=O)(=O)c3ccc(Cl)cc3)cc2)C[S+]([O-])c2ccccc21)C(=O)C(F)(F)F (stereo not given in full)	6.8 µM and 6.2 µM	–
CC(C)C(NC(=O)CN1CC[C@H](NC(=O)c2ccc(C(=O)NS(=O)(=O)c3ccc(Cl)cc3)cc2)C1=O)C(=O)C(F)(F)F (stereo not given in full)	> 5 µM	–
